Reference: PMC7349657, “Efficient Targeted Degradation via Reversible and Irreversible Covalent PROTACs” (Journal of the American Chemical Society, 2020)
“And” between values parts separate entries of the source, which are not always exact repeats. Equal values may be shown once.

Experiments:
BTK [1] = biological target: T1, BTK (Homo sapiens, UniProt Q06187); test: BTK degradation in Mino cells, dose-response Western blot; format: cell-based; set-up: endogenous in cells; host or cells: Mino (ATCC CRL-3000), Ramos (ATCC CRL-1596), K562 (NCI-60); conditions: 24 h; for DC50: second-order polynomial fit; for Dmax: MINO, read-out: Dmax (maximal degradation)
Procedure: We evaluated the ability of the compounds to induce degradation of BTK in human cell lines. We incubated Mino cells with the compounds and followed BTK levels after 24 h by Western blot (Figure 2, Supporting Figure 2). […] The irreversible acrylamides IR-1 and IR-2 and the cyanoacrylamide RC-3 followed closely with DC50’s under 10 nM and Dmax near 90%. […] We conducted metabolomics studies to estimate if cellular penetration and stability may contribute to the relative potencies (Supporting Table 2). NC-1 and RC-3 reached an effective concentration that was ∼2 times higher than IR-2 and ∼10 times higher than RC-2. Therefore, the lower potency of RC-2 can at least in part be explained by lower permeability or stability.
Figure 2 Efficient BTK degradation in cells. (A) Western blot evaluation of BTK levels in Mino cells in response to various concentrations of RC-2, IR-2, NC-1, and RC-3, after 24 h of incubation. (B) Quantification of BTK levels in (A) by normalization to the β-actin house-keeping gene in Mino cells. DC50 and Dmax were calculated by fitting the data to a second-order polynomial using Prism software. (C) Summary of the DC50 and Dmax values for the PROTACs in Mino cells described in (A) and Supporting Figure 2. TEXT PRINTED IN THE PICTURE: (C) NC-1: DC50 (nM): 2.2; Dmax (%): 97 | (C) IR-1: DC50 (nM): 8.6; Dmax (%): 91 | (C) IR-2: DC50 (nM): 1.9; Dmax (%): 88 | (C) RC-1: DC50 (nM): 10; Dmax (%): 68 | (C) RC-2: DC50 (nM): 35; Dmax (%): 66 | (C) RC-3: DC50 (nM): 6; Dmax (%): 85
Ramos (ATCC, CRL-1596), Mino (ATCC, CRL-3000), or K562 (NCI-60) cell lines were counted and diluted to 10^6 cell/mL, using 1 mL per well in a 24-well plate, and U2OS (ATCC HTB-96) cells overexpressing human BTK WT or C481S mutant were grown using 2 mL in a six-well plate (see Supporting Information). Cells were incubated with 1% DMSO or compound in indicated concentrations for 24 h unless indicated differently, or cells were left untreated. Lysates were prepared as previously described,[29] and samples were measured for total protein quantification by bicinchoninic acid (BCA) assay (#23225 ThermoFisher Scientific) supplemented with 4× loading buffer including 20 mM DTT, heated to 70 °C for 10 min, loaded into 4% SDS-PAGE gel, run for 45 min at 140 mV, then transferred into a nitrocellulose membrane (Biorad) using a Trans-Blot Turbo transfer system (Biorad). The membrane was stained with Ponceau (Sigma) to validate transfer for 10 min in gentle agitation then destained for 1 h with MQ water. The membrane was blocked with Licor blocking buffer (LIC927-70001) for 1 h, washed three times for 5 min with TBS-T, incubated with primary antibody BTK (D3H5) rabbit mAb (CST; 8547 S) overnight (16 h) at 4 °C, washed three times for 5 min with TBS-T, and incubated with primary antibody against β-actin (CST; 3700) for 1 h at 25 °C. Membrane was washed three times for 5 min with TBS-T, incubated with fluorescent secondary antibodies anti-mouse IgG Alexa Fluor 647 (CST: 4410S) and anti-rabbit-IgG IRDye 800(LICOR: 926-32211) for 1 h, then washed three times for 5 min with TBS-T, dried, and immediately imaged and analyzed using Licor Odyssey CLx. Prism (GraphPad) software was used to calculate degradation levels. We used second-order polynomial fits to estimate DC50 and Dmax values.

BTK [2] = biological target: T1, BTK; test: BTK degradation in patient-derived primary CLL cells (Western blot); format: cell-based; set-up: endogenous in cells; conditions: 18 h
Procedure: To assess the PROTACs’ efficiency in a clinically relevant model, we tested their ability to induce BTK degradation in primary cells from chronic lymphocytic leukemia (CLL) patients.
Figure 4 Degradation of BTK in patient-derived CLL cells. Patient-derived primary CLL cells were treated with BTK PROTACs for 18 h, followed by measuring BTK levels via Western blot. M-IGHV/UM-IGHV: mutated/unmutated immunoglobulin heavy chain variable region (IGHV) gene.
The LC–MS/MS instrument consi sted of an Acquit y I-class UPLC system (Waters) and Xevo TQ-XS triple quadrupole mass spectrometer (Waters) equipped with an electrospray ion source. Chromatographic separation was done on UPLC BEH C18 column (50mm × 2.1mm, 1.7-µm, Waters) using 50-100% gradient of 95%-aqueous acetonitrile with 0.1% formic acid in aqueous 0.1% formic acid during 2.5 minut e s, with a flow rate of 0. 3 mL min−1 and column temperature 30°C. Samples kept at 10°C were automatically injected in a volume of 3µl.
MS parameters (positive ion mode): capillary voltage - 2. 0kV, source temperature - […]
Targeting BTK in CLL cells […]
Following incubation with PROTACs as detailed, cells were collected and lysed in cell lysis buffer (Cell Signaling Technology, Beverly, MA) containing Phosphatase Inhibitor Cocktail 2 and protease inhibitor Cocktail (Sigma-Aldrich, St. Louis, MO). […] Bands were detected using MyECL Imager (Thermo Scientific, […]

T1 sequence (Q06187 whole entry): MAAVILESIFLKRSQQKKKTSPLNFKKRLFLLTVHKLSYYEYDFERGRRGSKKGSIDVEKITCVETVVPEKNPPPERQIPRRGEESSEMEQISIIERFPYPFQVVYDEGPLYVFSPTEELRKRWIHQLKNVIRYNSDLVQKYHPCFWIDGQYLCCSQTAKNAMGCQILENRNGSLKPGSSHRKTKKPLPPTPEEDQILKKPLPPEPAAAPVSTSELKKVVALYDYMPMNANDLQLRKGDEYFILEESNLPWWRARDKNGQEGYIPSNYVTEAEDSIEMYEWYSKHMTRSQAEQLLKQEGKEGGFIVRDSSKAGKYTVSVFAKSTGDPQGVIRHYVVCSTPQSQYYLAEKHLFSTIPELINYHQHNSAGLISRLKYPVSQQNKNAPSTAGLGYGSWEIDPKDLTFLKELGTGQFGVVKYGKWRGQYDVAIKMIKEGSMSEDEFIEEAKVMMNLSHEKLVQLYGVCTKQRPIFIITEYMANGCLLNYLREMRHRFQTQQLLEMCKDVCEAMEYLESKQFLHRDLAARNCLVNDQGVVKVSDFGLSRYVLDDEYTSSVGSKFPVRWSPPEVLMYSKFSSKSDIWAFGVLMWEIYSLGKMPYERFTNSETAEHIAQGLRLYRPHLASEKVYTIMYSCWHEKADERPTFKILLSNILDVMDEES

| SMILES | Dmax (maximal degradation) (BTK [1]) [%] | DC50 (BTK [1]) | Dmax (BTK [1]) [%] | BTK degradation level (BTK [2]) |
| --- | --- | --- | --- | --- |
| Nc1ncnc2c1c(-c1ccc(Oc3ccccc3)cc1)nn2C1CCCN(C(=O)C=CCOCCOCCOCCOCCOCCOc2cccc3c2C(=O)N(C2CCC(=O)NC2=O)C3=O)C1 (stereo not shown) [IR-1] | 91 | < 10 nM and 8.6 nM | ~90 |  |
| Nc1ncnc2c1c(-c1ccc(Oc3ccccc3)cc1)nn2C1CCCN(C(=O)CCCCCCOCCOCCOCCOCCOc2cccc3c2C(=O)N(C2CCC(=O)NC2=O)C3=O)C1 (stereo not shown) [NC-1] |  | 2.2 nM | 97 | higher degradation levels than RC-2 and RC-3 |

More lines, main results first:

| Dmax (maximal degradation) (BTK [1]) [%] | DC50 (BTK [1]) | Dmax (BTK [1]) [%] | SMILES | BTK degradation level (BTK [2]) |
| --- | --- | --- | --- | --- |
| 88 |  | ~90 | Nc1ncnc2c1c(-c1ccc(Oc3ccccc3)cc1)nn2C1CCCN(C(=O)C=CCCCCOCCOCCOCCOCCOc2cccc3c2C(=O)N(C2CCC(=O)NC2=O)C3=O)C1 (stereo not shown) [IR-2] | higher degradation levels than RC-2 and RC-3 |
| 85 | < 10 nM and 6 nM | ~90 | CC(C)(C=C(C#N)C(=O)N1CCCC(n2nc(-c3ccc(Oc4ccccc4)cc3)c3c(N)ncnc32)C1)CCCOCCOCCOCCOCCOc1cccc2c1C(=O)N(C1CCC(=O)NC1=O)C2=O (stereo not shown) [RC-3] |  |
|  |  | 66 | N#CC(=CCCCCOCCOCCOCCOCCOc1cccc2c1C(=O)N(C1CCC(=O)NC1=O)C2=O)C(=O)N1CCCC(n2nc(-c3ccc(Oc4ccccc4)cc3)c3c(N)ncnc32)C1 (stereo not shown) [RC-2] |  |
